Type in all cases: in vivo
The subject of assay [1] is Setaria faberi (SETFA). In words: Test 1 glasshouse assay, pre-emergence herbicidal activity. As to conditions: 312 h, visual evaluation after 13 days, read-out: Percentage phytotoxicity SETFA. The essentials: (§1)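 Pre-emergence: test species sown in soil and sprayed one day after sowing with active ingredient in acetone/water (50:50) with 0.5% Tween 20. Grown at 24/16 °C day/night, 14 h light, 65% humidity; visual phytotoxicity scored after 13 days (0% no damage, 100% total damage).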

The test system of assay [2] is Amaranthus retroflexus (AMARE). In words: Test 1 glasshouse assay, post-emergence herbicidal activity. The following applies: 312 h, post-emergence (Example 1B Table 1), after 13 days, read-out: Percentage phytotoxicity AMARE. On the procedure: (§2) Seeds of a variety of test species are sown in standard soil in pots. After cultivation for one day (pre-emergence) or after 8 days cultivation (post-emergence) under controlled conditions in a glasshouse (at 24/16° C., day/night; 14 hours light; 65% humidity), the plants are sprayed with an aqueous spray solution derived from the formulation of the “technical” (i.e. unformulated) active ingredient in acetone/water (50:50) solution containing 0.5% Tween 20 (polyoxyethylene sorbitan monolaurate, CAS Registry Number 9005-64-5). The test plants are then grown on under controlled conditions in a glasshouse (at 24/16° C., day/night; 14 hours light; 65% humidity) and watered twice daily. After 13 days for pre- or post-emergence, the test is evaluated visually, and an assessed percentage phytotoxicity score is given for each herbicidal application on each plant species (where 100%=total damage to plant; 0%=no damage to plant).
(§3) Test plants include the following: Abutilon theophrasti (ABUTH) and Amaranthus retroflexus (AMARE); these are all dicotyledonous (broadleaved) weeds. Setaria faberi (SETFA), Alopecurus myosuroides (ALOMY), and Echinochloa crus-galli (ECHCG); these are all grassy monocotyledonous weeds. Also: Zea mays (ZEAMX, corn/maize), which can be a grassy weed (“volunteer” corn) in some circumstances.

Assay [3] deals with Setaria faberi (SETFA). The description is as above. The following applies: 312 h, post-emergence (Example 1B Table 1), after 13 days, read-out: Percentage phytotoxicity SETFA. The protocol:
as §2, §3

Assay [4] has as its system Zea mays (ZEAMX, corn/maize). In words: Test 1 glasshouse assay, pre-emergence herbicidal activity. As to conditions: 312 h, visual evaluation after 13 days, read-out: Percentage phytotoxicity ZEAMX. The procedure, abridged:
as §1

Assay [5] relates to Zea mays (ZEAMX, corn/maize). In words: Test 1 glasshouse assay, post-emergence herbicidal activity. As to conditions: 312 h, post-emergence (Example 1B Table 1), after 13 days, read-out: Percentage phytotoxicity ZEAMX. The protocol: as §2, §3
The test system of assay [6] is Abutilon theophrasti (ABUTH). The description is as above. The following applies: 312 h, post-emergence (Example 1B Table 1), after 13 days, read-out: Percentage phytotoxicity ABUTH. The protocol:
as §2, §3

Structures are written as SMILES.

Turning to `C#CCC1CC(=O)C(c2c(C)cc(-c3ccc(F)cc3)cc2C)C1=O` (stereo not shown) [Compound A1, 2-[4-(4-fluorophenyl)-2,6-dimethyl-phenyl]-4-prop-2-ynylcyclopentane-1,3-dione], the pest or weed control at 250 g/ha is 90% in assay [1], 70% in assay [2] and 100% in assay [3]. Besides, the values for the pest or weed control at 62.5 g/ha in assay [2] and in assay [3] were 30% and 90%, respectively.

On to `C#CCC1CC(=O)C(c2c(C)cc(-c3ncc(Cl)cc3F)cc2C)C1=O` (stereo not shown) [Compound A3], for which the pest or weed control at 250 g/ha was found to be 100% in assay [4]; 100% in assay [1]; 90% in assay [2]; 100% in assay [5]; 90% in assay [6]; 100% in assay [3]. The pest or weed control at 62.5 g/ha in assay [2] was determined as 60%; in assay [5] (62.5 g/ha), 100%; in assay [6] (62.5 g/ha), 80%; in assay [3] it was 100%.

For the compound `C#CCC1CC(=O)C(c2c(F)cc(-c3ccc(Cl)cc3)cc2Cl)C1=O` (stereo not shown) [Compound A6, 2-[2-chloro-4-(4-chlorophenyl)-6-fluorophenyl]-4-prop-2-ynylcyclopentane-1,3-dione], the pest or weed control at 250 g/ha amounted to 90% in assay [4]; 100% in assay [1]; 70% in assay [2]; 100% in assay [5]; 70% in assay [6]; 100% in assay [3]. Further, the pest or weed control at 30 g/ha in assay [2] was 60%; in assay [5] it was 100%; in assay [6], 40%; in assay [3] it was 100%.

Take `C#CCC1CC(=O)C(c2c(F)cc(-c3ccc(Cl)cn3)cc2Cl)C1=O` (stereo not shown) [Compound A8]: the pest or weed control at 250 g/ha in assay [4] was 90%; in assay [1], 100%; in assay [2], 90%; in assay [5], 100%; in assay [6], 80%; in assay [3] it was 100%. Also, the pest or weed control at 30 g/ha amounted to 80% in assay [2], 100% in assay [5], 70% in assay [6] and 100% in assay [3].

Regarding `C#CCC1CC(=O)C(c2c(Cl)cc(-c3ccc(Cl)cn3)cc2OC)C1=O` (stereo not shown) [Compound A10], the pest or weed control at 250 g/ha was found to be 100% in assay [4]; 100% in assay [1]; 80% in assay [2]; 100% in assay [5]; 80% in assay [6]; 100% in assay [3]. Further, the pest or weed control at 30 g/ha is 80% in assay [2], 100% in assay [5], 80% in assay [6] and 100% in assay [3].

As to `C#CCC1CC(=O)C(c2c(Cl)cc(-c3ccc(F)c(F)c3)cc2OC)C1=O` (stereo not shown) [Compound A13], the pest or weed control at 250 g/ha in assay [4] was determined as 100%; in assay [1], 100%; in assay [2] it was 90%; in assay [5] it was 100%; in assay [6] it was 80%; in assay [3], 100%. Also, the pest or weed control at 30 g/ha came out at 60% in assay [2], 100% in assay [5], 70% in assay [6] and 100% in assay [3].

In the case of `C#CCC1CC(=O)C(c2cc(-c3ccc(Cl)cc3Cl)ccc2C)C1=O` (stereo not shown) [Compound A15], the pest or weed control at 250 g/ha in assay [2] stood at 40%; in assay [5] it was 80%; in assay [6], 60%; in assay [3] it was 70%.

`C#CCC1CC(=O)C(c2cc(-c3ncc(Cl)cc3F)ccc2C)C1=O` (stereo not shown) [Compound A18]: the pest or weed control at 250 g/ha in assay [4] worked out at 30%; in assay [1], 70%; in assay [2], 60%; in assay [5], 80%; in assay [6] it was 60%; in assay [3], 80%. Besides, the pest or weed control at 30 g/ha in assay [2] was 0%; in assay [5], 60%; in assay [6] it was 0%; in assay [3], 60%.

`C#CCC1CC(=O)C(c2cc(-c3ncc(Cl)cn3)ccc2C)C1=O` (stereo not shown) [Compound A19]: the pest or weed control at 250 g/ha in assay [4] was 0%; in assay [1], 60%; in assay [2], 20%; in assay [5] it was 30%; in assay [6] it was 30%; in assay [3], 90%. The pest or weed control at 30 g/ha in assay [2] was determined as 0%; in assay [5], 40%; in assay [6], 0%; in assay [3], 70%.

For the compound `C#CCC1CC(=O)C(c2c(F)cc(-c3ccc(F)c(F)c3)cc2OC)C1=O` (stereo not shown) [Compound A22], the pest or weed control at 250 g/ha was found to be 100% in assay [4]; 90% in assay [1]; 80% in assay [2]; 100% in assay [5]; 40% in assay [6]; 100% in assay [3]. For the same compound, the pest or weed control at 30 g/ha in assay [2] is 10%; in assay [5] it was 100%; in assay [6], 0%; in assay [3], 90%.

For `C#CCC1CC(OC(C)=O)=C(c2c(C)cc(-c3ccc(F)cc3)cc2C)C1=O` (stereo not shown) [Compound A45], the pest or weed control at 250 g/ha in assay [1] was 60%; in assay [2], 80%; in assay [3] it was 100%. In addition, the pest or weed control at 62.5 g/ha in assay [2] came to 20%; in assay [3], 90%.
